Test results as given in PMC10402201, “CYP5122A1 encodes an essential sterol C4-methyl oxidase in Leishmania donovani and determines the antileishmanial activity of antifungal azoles” (Research Square, 2023).

Columns and labels:
CYP51 = biological target: T1, CYP51 (Leishmania donovani, UniProt A0A3S7WRS7); assay: UV-Vis difference spectra (type II binding), plus BFC inhibition assay
T1 construct: gene LdCL_110017000; truncated form of XP_003859085.1 without the first 31 amino acids (transmembrane domain), N-terminal solubility tag, C-terminal His-tag
T1 sequence (A0A3S7WRS7 32-480): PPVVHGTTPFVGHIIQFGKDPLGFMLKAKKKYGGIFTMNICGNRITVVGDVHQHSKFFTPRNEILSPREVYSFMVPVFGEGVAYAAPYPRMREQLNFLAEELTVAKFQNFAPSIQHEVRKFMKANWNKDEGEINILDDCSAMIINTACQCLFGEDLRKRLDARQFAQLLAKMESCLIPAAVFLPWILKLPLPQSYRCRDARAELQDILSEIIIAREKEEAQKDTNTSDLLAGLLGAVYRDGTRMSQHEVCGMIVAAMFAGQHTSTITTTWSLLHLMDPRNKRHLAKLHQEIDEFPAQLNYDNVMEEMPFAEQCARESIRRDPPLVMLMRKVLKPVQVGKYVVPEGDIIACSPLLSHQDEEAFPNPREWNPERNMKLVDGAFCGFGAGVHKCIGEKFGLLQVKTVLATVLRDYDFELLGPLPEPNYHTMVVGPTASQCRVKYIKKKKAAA

CYP5122A1 = biological target: T2, CYP5122A1 (Leishmania donovani, UniProt A0A3S7X0B6); assay: as above
T2 construct: gene LdCL_270005800; truncated form of XP_003861867.1 without the first 60 amino acids (transmembrane domain), N-terminal solubility tag, C-terminal His-tag
T2 sequence (A0A3S7X0B6 61-592): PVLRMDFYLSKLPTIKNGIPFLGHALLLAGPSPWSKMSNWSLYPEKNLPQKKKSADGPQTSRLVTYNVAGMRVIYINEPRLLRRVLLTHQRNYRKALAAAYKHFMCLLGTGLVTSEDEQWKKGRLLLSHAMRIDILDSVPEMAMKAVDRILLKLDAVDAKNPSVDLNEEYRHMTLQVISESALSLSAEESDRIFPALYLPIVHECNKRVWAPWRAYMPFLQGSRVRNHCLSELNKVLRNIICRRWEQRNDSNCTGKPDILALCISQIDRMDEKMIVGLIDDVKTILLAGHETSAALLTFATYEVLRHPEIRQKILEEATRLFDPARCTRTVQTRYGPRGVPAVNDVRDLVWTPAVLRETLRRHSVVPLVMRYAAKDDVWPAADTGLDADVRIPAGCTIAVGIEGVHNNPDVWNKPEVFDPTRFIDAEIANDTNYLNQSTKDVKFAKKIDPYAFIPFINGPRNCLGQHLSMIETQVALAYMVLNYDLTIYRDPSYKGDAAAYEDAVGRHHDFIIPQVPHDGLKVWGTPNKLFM

Row | Compound | UV-Vis difference spectra (type II binding), plus BFC inhibition assay (CYP51) | UV-Vis difference spectra (type II binding), plus BFC inhibition assay (CYP5122A1)
1 | Clc1ccccc1C(c1ccccc1)(c1ccccc1)n1ccnc1 [clotrimazole] | Clotrimazole exhibited type II binding to both CYP51 and CYP5122A1 | Clotrimazole exhibited type II binding to both CYP51 and CYP5122A1
2 | C[C@@H](c1ncncc1F)[C@](O)(Cn1cncn1)c1ccc(F)cc1F [voriconazole] | Fluconazole and voriconazole elicited type II binding with CYP51 but no specific responses with CYP5122A1 | 
3 | OC(Cn1cncn1)(Cn1cncn1)c1ccc(F)cc1F [fluconazole] | Fluconazole and voriconazole elicited type II binding with CYP51 but no specific responses with CYP5122A1 | 
